Experimental findings from patent US9439904B2, “Pyrimidine compounds and their use as gamma secretase modulators” (Acturum Life Science AB, priority 2013, dated 2016) are described below.

Assay [1] deals with Aβ42. Nature of the assay: HEK assay: Aβ42 secreted to cell medium, Meso Scale Discovery electrochemiluminescence. In kind it is cell-based. The conditions noted are these: Homo sapiens, HEK293; HEK cell line stably expressing APPswe; 4-6 hours incubation with test compound; read-out: pIC50 Aβ42 HEK assay (converted). The protocol: Compounds were diluted in 100% DMSO and stored at […] prior to use. Human Embryonic Kidney (HEK) cell line stably expressing APP with the Swedish mutation (APPswe) was cultured using Dulbecco's Modified Eagles medium (DMEM) supplied with […] glucose, Na-pyruvate and GlutaMAX, 10% Foetal bovine serum, 100 U/mL penicillin-streptomycin (PEST), 1× non-essential amino acids (NEAA), […] Hepes, 100 μg/mL Zeocine. Cells at about 80% confluence were washed with PBS, detached from culture flasks using 1× Trypsin/EDTA diluted in PBS, re-suspended in cell media and plated in 384-well poly-d-lysine coated cell culture plates at about 10000-15000 cells/well, in 25 μL cell media. Optionally, cryo-preserved cells (frozen and stored at −140° C. in 90% cell media and 10% DMSO) were thawed, washed and plated as above. Next the cells were incubated for 15-24 h at 37° C. and 5% CO2, after which cell medium was changed. Fresh medium containing test compound diluted ×200 from prepared compound plate was added to the cells before further incubation for 4-6 hours at 37° C. and 5% CO2. After incubation with test compound the amount of Aβ peptides, including Aβ42, Aβ40, Aβ39, Aβ38 and Aβ37, secreted to cell medium was analyzed using the electrochemiluminescence assay technology from Meso Scale Discovery Technology, in combination with specific antibodies raised against the different Aβ peptides. Potential cytotoxic effects of the compounds were assayed by measuring the ATP content (ViaLight) from cell lysate.

The test system of assay [2] is Aβ42. Nature of the assay: PCN assay: Aβ42 secreted by primary cortical neuronal cells, ELISA. In kind it is cell-based. The conditions noted are these: primary cortical neuronal cells from 16-day mouse embryos; 16-20 hours incubation with test compound; read-out: pIC50 Aβ42 PCN assay (converted). The protocol:
Compounds were diluted in 100% DMSO and stored at […] prior to use. Primary cortical neuronal cells (PCN) were isolated from 16-day mouse embryos and cultured in Ham's F12 media containing 10% Foetal bovine serum, 10 mM Hepes, 2 mM L-glutamine and 100 U/mL Penicillin-Streptomycin. 150000-250000 cells/well, in 200 μL cell media were seeded onto 96-well poly-D-Lysine coated plates. After incubation at 37° C., 5% CO2 for five days, the media was exchanged for fresh medium containing test compound diluted ×100, before further incubation for 16-20 hours at 37° C. and 5% CO2. After incubation with test compound the amount of […] secreted to cell medium was analyzed using the solid phase sandwich Enzyme-Linked-Immuno-Sorbent Assay (ELISA)-kit from Invitrogen for detection of mouse βAmyloid 1-42. Potential cytotoxic effects of the compounds were assayed by measuring the ATP content (Via Light) from cell lysate.

With `CNc1cc(COCC(F)(F)F)nc(Nc2ccc(-n3cnc(C)c3)c(OC)c2)n1` [Example 9, N^2-(3-Methoxy-4-(4-methyl-1H-imidazol-1-yl)phenyl)-N4-methyl-6-((2,2,2-trifluoroethoxy)methyl)pyrimidine-2,4-diamine], the IC50 in the assay on Aβ42 [1] was 25.1 nM; in the assay on Aβ42 [2], 31.6 nM.
Taken in the same sequence, the figures for `COc1cc(Nc2nc(COCC(F)(F)F)cc(N3CCC3)n2)ccc1-n1cnc(C)c1` [Example 20, 4-(Azetidin-1-yl)-N-(3-methoxy-4-(4-methyl-1H-imidazol-1-yl)phenyl)-6-((2,2,2-trifluoroethoxy)methyl)pyrimidin-2-amine] were 39.8 nM and 100 nM.
Taken in the same sequence, the figures for `COc1cc(Nc2nc(COCC3CC(F)(F)C3)cc(C(C)(C)O)n2)ccc1-n1cnc(C)c1` [Example 17, 2-(6-(((3,3-Difluorocyclobutyl)methoxy)methyl)-2-(3-methoxy-4-(4-methyl-1H-imidazol-1-yl)phenylamino)pyrimidin-4-yl)propan-2-ol] were 200 nM and 200 nM.
Taken in the same sequence, the figures for `COc1cc(Nc2nc(CO)cc(COCC(F)(F)F)n2)ccc1-n1cnc(C)c1` [Example 10, (2-(3-Methoxy-4-(4-methyl-1H-imidazol-1-yl)phenylamino)-6-((2,2,2-trifluoroethoxy)methyl)pyrimidin-4-yl)methanol] were 63.1 nM and 31.6 nM.
On to `CCOC1(c2cc(C(C)(C)O)nc(Nc3ccc(-n4cnc(C)c4)c(OC)c3)n2)CC1(F)F` (stereo not drawn) [Example 52, 2-(6-(1-Ethoxy-2,2-difluorocyclopropyl)-2-(3-methoxy-4-(4-methyl-1H-imidazol-1-yl)phenylamino)pyrimidin-4-yl)propan-2-ol], for which the IC50 with Aβ42 [1] and in the assay with Aβ42 [2] was 200 nM in each case.
As for `CCC(C)(O)c1cc(COCC(F)(F)F)nc(Nc2ccc(-n3cnc(C)c3)c(OC)c2)n1` (stereo not drawn) [Example 45, 2-(2-(3-Methoxy-4-(4-methyl-1H-imidazol-1-yl)phenylamino)-6-((2,2,2-trifluoroethoxy)-methyl)pyrimidin-4-yl)butan-2-ol], the figures for the IC50 with Aβ42 [1] and in the assay with Aβ42 [2] were 50.1 nM and 63.1 nM, respectively.
In the case of `COc1cc(Nc2nc(COCC(F)(F)F)cc(C(O)c3ccccc3)n2)ccc1-n1cnc(C)c1` (stereo not drawn) [Example 49, (2-(3-Methoxy-4-(4-methyl-1H-imidazol-1-yl)phenylamino)-6-((2,2,2-trifluoroethoxy)-methyl)pyrimidin-4-yl)(phenyl)methanol], the IC50 in the assay with Aβ42 [1] and in the assay with Aβ42 [2] was 79.4 nM throughout.
For `COc1cc(Nc2nc(COCCC(F)(F)F)cc(C(C)(C)O)n2)ccc1-n1cnc(C)c1` [Example 18, 2-(2-(3-Methoxy-4-(4-methyl-1H-imidazol-1-yl)phenylamino)-6-((3,3,3-trifluoropropoxy)-methyl)pyrimidin-4-yl)propan-2-ol], the IC50 in the assay on Aβ42 [1] was 63.1 nM; in the assay on Aβ42 [2] it was 100 nM.
On to `CNc1cc(COCC2CC2)nc(Nc2ccc(-n3cnc(C)c3)c(OC)c2)n1` [Example 30, 6-((Cyclopropylmethoxy)methyl)-N2-(3-methoxy-4-(4-methyl-1H-imidazol-1-yl)phenyl)-N4-methylpyrimidine-2,4-diamine], for which the values for the IC50 in the assay on Aβ42 [1] and in the assay with Aβ42 [2] were 39.8 nM and 63.1 nM, respectively.
For `CNc1cc(COCC(F)(F)F)nc(Nc2ccc(-n3cnc(C)c3)cc2)n1` [Example 2, N^4-Methyl-N^2-(4-(4-methyl-1H-imidazol-1-yl)phenyl)-6-((2,2,2-trifluoroethoxy)methyl)-pyrimidine-2,4-diamine], in that order: 31.6 nM and 63.1 nM.
On to `COc1cc(Nc2nc(COCC3CC(F)(F)C3)cc(C(C)(C)O)n2)ccc1-c1cnnc(C)c1` [Example 19, 2-(6-(((3,3-Difluorocyclobutyl)methoxy)methyl)-2-(3-methoxy-4-(6-methylpyridazin-4-yl)phenylamino)pyrimidin-4-yl)propan-2-ol], for which the IC50 in the assay on Aβ42 [1] is 200 nM.
For the molecule `COc1cc(Nc2nc(CNCc3ccccc3)cc(COCC(F)(F)F)n2)ccc1-c1cnnc(C)c1` [Example 39, 4-((Benzylamino)methyl)-N-(3-methoxy-4-(6-methylpyridazin-4-yl)phenyl)-6-((2,2,2-trifluoroethoxy)methyl)pyrimidin-2-amine], the results for the IC50 with Aβ42 [1] and with Aβ42 [2] were 126 nM and 200 nM, respectively.
Turning to `COc1cc(Nc2nc(CC#N)cc(COCC(F)(F)F)n2)ccc1-n1cnc(C)c1` [Example 3, 2-[2-[3-Methoxy-4-(4-methylimidazol-1-yl)anilino]-6-(2,2,2-trifluoroethoxymethyl)pyrimidin-4-yl]acetonitrile], the IC50 was 25.1 nM in the assay on Aβ42 [1] and 39.8 nM with Aβ42 [2].
Consider `COc1cc(Nc2nc(COCC(F)(F)F)cc(NC(C)C)n2)ccc1-n1cnc(C)c1` [Example 8, N^4-Isopropyl-N^2-(3-methoxy-4-(4-methyl-1H-imidazol-1-yl)phenyl)-6-((2,2,2-trifluoroethoxy)methyl)pyrimidine-2,4-diamine], for which the IC50 in the assay on Aβ42 [1] was 31.6 nM; in the assay with Aβ42 [2], 20 nM.
Taken in the same sequence, the figures for `COCCNc1cc(COCC(F)(F)F)nc(Nc2ccc(-n3cnc(C)c3)c(OC)c2)n1` [Example 37, N2-(3-Methoxy-4-(4-methyl-1H-imidazol-1-yl)phenyl)-N4-(2-methoxyethyl)-6-((2,2,2-trifluoroethoxy)methyl)pyrimidine-2,4-diamine] were 39.8 nM and 63.1 nM.
With `COc1cc(Nc2nc(COCC(F)(F)F)cc(N3CCC(F)(F)CC3)n2)ccc1-n1cnc(C)c1` [Example 26, 4-(4,4-Difluoropiperidin-1-yl)-N-(3-methoxy-4-(4-methyl-1H-imidazol-1-yl)phenyl)-6-((2,2,2-trifluoroethoxy)methyl)pyrimidin-2-amine], the IC50 in the assay on Aβ42 [1] is 50.1 nM; in the assay with Aβ42 [2] it was 20 nM.
For `CNc1cc(COCC(F)(F)F)nc(Nc2ccc(-c3cnnc(C)c3)c(OC)c2)n1` [Example 24, N^2-(3-Methoxy-4-(6-methylpyridazin-4-yl)phenyl)-N^4-methyl-6-((2,2,2-trifluoroethoxy)-methyl)pyrimidine-2,4-diamine], in that order: 100 nM and 79.4 nM.
For `COCc1cc(C(C)(C)O)nc(Nc2ccc(-n3cnc(C)c3)c(OC)c2)n1` [Example 27, 2-(2-(3-Methoxy-4-(4-methyl-1H-imidazol-1-yl)phenylamino)-6-(methoxymethyl)pyrimidin-4-yl)propan-2-ol], in that order: 158 nM and 126 nM.
For `COc1cc(Nc2nc(COCC3CC3)cc(N3CCC3)n2)ccc1-n1cnc(C)c1` [Example 1, 4-(Azetidin-1-yl)-6-((cyclopropylmethoxy)methyl)-N-(3-methoxy-4-(4-methyl-1H-imidazol-1-yl)phenyl)pyrimidin-2-amine], in that order: 20 nM and 50.1 nM.
Regarding `COc1cc(Nc2nc(COCC(F)(F)F)cc(C(O)C(C)C)n2)ccc1-n1cnc(C)c1` (stereo not drawn) [Example 14, 1-(2-(3-Methoxy-4-(4-methyl-1H-imidazol-1-yl)phenylamino)-6-((2,2,2-trifluoroethoxy)methyl)pyrimidin-4-yl)-2-methylpropan-1-ol], the IC50 in the assay on Aβ42 [2] is 39.8 nM.
For the molecule `COc1cc(Nc2nc(COCC(F)(F)F)cc(CN(C)C)n2)ccc1-n1cnc(C)c1` [Example 41, 4-((Dimethylamino)methyl)-N-(3-methoxy-4-(4-methyl-1H-imidazol-1-yl)phenyl)-6-((2,2,2-trifluoroethoxy)methyl)pyrimidin-2-amine], the IC50 in the assay with Aβ42 [1] was 158 nM.
